Several values for one entry are separate records, joined by “and”; a condition that tells them apart may be missing. Equal entries are not always repeated. Toxic doses and inconclusive results are not listed.
Tested on: P388 leukemia ip, CD2F1 mice, survival T/C
Assay: NCI In Vivo Anticancer Drug Screen. Data for tumor model P388 Leukemia (intraperitoneal) in CD2F1 (CDF1) mice
Conditions: endpoint: median survival time, higher = longer survival
Summary of the method: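 Mice carrying the transplanted tumor received test compound or vehicle. Survival was recorded in each group, and the value is the treated-group measurement divided by that of the vehicle-treated control group.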

O=C1c2c(O)ccc(O)c2C(=O)c2c(NCCNCCO)ccc(NCCNCCO)c21
T/C (dose: 0.02 mg/kg/injection, schedule: Q04DX003 (ip), vehicle: saline): 120 % of control | T/C (dose: 0.06 mg/kg/injection, schedule: Q01DX009 (ip), vehicle: saline): 175 % of control and 208 % of control | T/C (dose: 0.06 mg/kg/injection, schedule: Q04DX003 (ip), vehicle: saline): 218 % of control | T/C (dose: 0.12 mg/kg/injection, schedule: Q01DX009 (ip), vehicle: acid diluted with saline): 179 % of control and 190 % of control | T/C (dose: 0.12 mg/kg/injection, schedule: Q01DX009 (ip), vehicle: other): 165 % of control | T/C (dose: 0.12 mg/kg/injection, schedule: Q01DX009 (ip), vehicle: saline): 200 % of control and 220 % of control | T/C (dose: 0.12 mg/kg/injection, schedule: Q04DX003 (ip), vehicle: saline): 160 % of control | T/C (dose: 0.13 mg/kg/injection, schedule: Q01DX009 (ip), vehicle: acid diluted with saline): 150 % of control and 176 % of control | T/C (dose: 0.2 mg/kg/injection, schedule: Q01DX009 (ip), vehicle: acid diluted with saline): 250 % of control | T/C (dose: 0.2 mg/kg/injection, schedule: Q01DX009 (ip), vehicle: water): 172 % of control | T/C (dose: 0.25 mg/kg/injection, schedule: Q01DX005 (ip), vehicle: acid diluted with saline): 270 % of control | T/C (dose: 0.25 mg/kg/injection, schedule: Q04DX003 (ip), vehicle: saline): 182 % of control | T/C (dose: 0.32 mg/kg/injection, schedule: Q01DX009 (ip), vehicle: acid diluted with saline): 225 % of control | T/C (dose: 0.32 mg/kg/injection, schedule: Q01DX009 (sc), vehicle: acid diluted with saline): 122 % of control | T/C (dose: 0.39 mg/kg/injection, schedule: Q01DX009 (ip), vehicle: acid diluted with saline): 272 % of control | T/C (dose: 0.39 mg/kg/injection, schedule: Q01DX009 (ip), vehicle: water): 245 % of control | T/C (dose: 0.5 mg/kg/injection, schedule: Q01DX005 (ip), vehicle: acid diluted with saline): 270 % of control | T/C (dose: 0.5 mg/kg/injection, schedule: Q01DX005 (iv), vehicle: acid diluted with saline): 99 % of control | T/C (dose: 0.5 mg/kg/injection, schedule: Q01DX009 (ip), vehicle: other): 238 % of control and 333 % of control | T/C (dose: 0.5 mg/kg/injection, schedule: Q04DX003 (ip), vehicle: saline): 179 % of control | T/C (dose: 0.54 mg/kg/injection, schedule: Q01DX009 (ip), vehicle: acid diluted with saline): 234 % of control | T/C (dose: 0.54 mg/kg/injection, schedule: Q01DX009 (sc), vehicle: acid diluted with saline): 153 % of control | T/C (dose: 0.75 mg/kg/injection, schedule: Q04DX002 (ip), vehicle: acid diluted with saline): 209 % of control | T/C (dose: 0.75 mg/kg/injection, schedule: Q04DX003 (ip), vehicle: acid diluted with saline): 123 % of control | T/C (dose: 0.78 mg/kg/injection, schedule: Q01DX009 (ip), vehicle: water): 271 % of control | T/C (dose: 0.78 mg/kg/injection, schedule: Q04DX003 (ip), vehicle: acid diluted with saline): 409 % of control | T/C (dose: 0.9 mg/kg/injection, schedule: Q01DX009 (ip), vehicle: acid diluted with saline): 405 % of control | T/C (dose: 0.9 mg/kg/injection, schedule: Q01DX009 (sc), vehicle: acid diluted with saline): 216 % of control | T/C (dose: 1.0 mg/kg/injection, schedule: Q01DX005 (ip), vehicle: acid diluted with saline): 270 % of control | T/C (dose: 1.0 mg/kg/injection, schedule: Q04DX003 (ip), vehicle: saline): 151 % of control and 188 % of control and 208 % of control | T/C (dose: 1.04 mg/kg/injection, schedule: Q04DX003 (ip), vehicle: acid diluted with saline): 252 % of control | T/C (dose: 1.04 mg/kg/injection, schedule: Q04DX003 (iv), vehicle: acid diluted with saline): 162 % of control | T/C (dose: 1.08 mg/kg/injection, schedule: Q01DX009 (ip), vehicle: acid diluted with saline): 409 % of control | T/C (dose: 1.3 mg/kg/injection, schedule: Q04DX003 (ip), vehicle: acid diluted with saline): 302 % of control | T/C (dose: 1.5 mg/kg/injection, schedule: Q01DX009 (ip), vehicle: acid diluted with saline): 405 % of control | T/C (dose: 1.5 mg/kg/injection, schedule: Q01DX009 (sc), vehicle: acid diluted with saline): 272 % of control | T/C (dose: 1.5 mg/kg/injection, schedule: Q04DX002 (ip), vehicle: acid diluted with saline): 176 % of control and 201 % of control | T/C (dose: 1.56 mg/kg/injection, schedule: Q01DX009 (ip), vehicle: water): 218 % of control | T/C (dose: 1.73 mg/kg/injection, schedule: Q04DX003 (ip), vehicle: acid diluted with saline): 333 % of control | T/C (dose: 1.73 mg/kg/injection, schedule: Q04DX003 (iv), vehicle: acid diluted with saline): 227 % of control | T/C (dose: 1.8 mg/kg/injection, schedule: Q01DX009 (ip), vehicle: acid diluted with saline): 225 % of control | T/C (dose: 2.0 mg/kg/injection, schedule: Q01DX009 (ip), vehicle: other): 207 % of control | T/C (dose: 2.0 mg/kg/injection, schedule: Q04DX003 (ip), vehicle: saline): 164 % of control and 172 % of control and 207 % of control | T/C (dose: 2.5 mg/kg/injection, schedule: Q01DX009 (ip), vehicle: acid diluted with saline): 180 % of control | T/C (dose: 2.88 mg/kg/injection, schedule: Q04DX003 (ip), vehicle: acid diluted with saline): 333 % of control | T/C (dose: 3.0 mg/kg/injection, schedule: Q01DX001 (ip), vehicle: acid diluted with saline): 333 % of control | T/C (dose: 3.0 mg/kg/injection, schedule: Q01DX009 (ip), vehicle: acid diluted with saline): 102 % of control | T/C (dose: 3.0 mg/kg/injection, schedule: Q04DX002 (ip), vehicle: acid diluted with saline): 260 % of control and 288 % of control | T/C (dose: 3.24 mg/kg/injection, schedule: Q01DX001 (iv), vehicle: acid diluted with saline): 178 % of control | T/C (dose: 3.3 mg/kg/injection, schedule: Q01DX001 (ip), vehicle: acid diluted with saline): 247 % of control | T/C (dose: 4.0 mg/kg/injection, schedule: Q01DX001 (ip), vehicle: acid diluted with saline): 187 % of control | T/C (dose: 4.0 mg/kg/injection, schedule: Q01DX001 (iv), vehicle: acid diluted with saline): 117 % of control | T/C (dose: 4.0 mg/kg/injection, schedule: Q01DX009 (ip), vehicle: other): 99 % of control | T/C (dose: 4.0 mg/kg/injection, schedule: Q04DX003 (ip), vehicle: saline): 166 % of control and 223 % of control and 233 % of control | T/C (dose: 4.4 mg/kg/injection, schedule: Q01DX001 (ip), vehicle: acid diluted with saline): 229 % of control | T/C (dose: 4.8 mg/kg/injection, schedule: Q04DX003 (ip), vehicle: acid diluted with saline): 180 % of control | T/C (dose: 5.0 mg/kg/injection, schedule: Q01DX001 (ip), vehicle: other): 250 % of control | T/C (dose: 5.4 mg/kg/injection, schedule: Q01DX001 (ip), vehicle: acid diluted with saline): 405 % of control | T/C (dose: 5.4 mg/kg/injection, schedule: Q01DX001 (iv), vehicle: acid diluted with saline): 270 % of control | T/C (dose: 6.0 mg/kg/injection, schedule: Q04DX002 (ip), vehicle: acid diluted with saline): 192 % of control and 260 % of control | T/C (dose: 6.7 mg/kg/injection, schedule: Q01DX001 (ip), vehicle: acid diluted with saline): 293 % of control | T/C (dose: 8.0 mg/kg/injection, schedule: Q01DX001 (ip), vehicle: acid diluted with saline): 171 % of control | T/C (dose: 8.0 mg/kg/injection, schedule: Q01DX001 (iv), vehicle: acid diluted with saline): 198 % of control | T/C (dose: 8.0 mg/kg/injection, schedule: Q04DX003 (ip), vehicle: acid diluted with saline): 107 % of control | T/C (dose: 8.0 mg/kg/injection, schedule: Q04DX003 (ip), vehicle: saline): 164 % of control and 232 % of control | T/C (dose: 8.0 mg/kg/injection, schedule: Q04DX003 (iv), vehicle: acid diluted with saline): 99 % of control | T/C (dose: 9.0 mg/kg/injection, schedule: Q01DX001 (ip), vehicle: acid diluted with saline): 261 % of control | T/C (dose: 9.0 mg/kg/injection, schedule: Q01DX001 (iv), vehicle: acid diluted with saline): 405 % of control | T/C (dose: 10.0 mg/kg/injection, schedule: Q04DX003 (ip), vehicle: acid diluted with saline): 180 % of control | T/C (dose: 12.0 mg/kg/injection, schedule: Q04DX002 (ip), vehicle: acid diluted with saline): 118 % of control | T/C (dose: 15.0 mg/kg/injection, schedule: Q01DX001 (ip), vehicle: other): 302 % of control | T/C (dose: 15.0 mg/kg/injection, schedule: Q01DX001 (iv), vehicle: acid diluted with saline): 405 % of control | T/C (dose: 16.0 mg/kg/injection, schedule: Q01DX001 (ip), vehicle: acid diluted with saline): 173 % of control | T/C (dose: 16.0 mg/kg/injection, schedule: Q01DX001 (iv), vehicle: acid diluted with saline): 101 % of control | T/C (dose: 16.0 mg/kg/injection, schedule: Q04DX003 (ip), vehicle: saline): 101 % of control and 117 % of control | T/C (dose: 25.0 mg/kg/injection, schedule: Q01DX001 (ip), vehicle: acid diluted with saline): 225 % of control | T/C (dose: 32.0 mg/kg/injection, schedule: Q01DX001 (ip), vehicle: acid diluted with saline): 270 % of control | T/C (dose: 32.0 mg/kg/injection, schedule: Q04DX003 (ip), vehicle: saline): 100 % of control | T/C (dose: 64.0 mg/kg/injection, schedule: Q01DX001 (ip), vehicle: acid diluted with saline): 270 % of control | T/C (dose: 7.0 micrograms/kg/injection, schedule: Q04DX003 (ip), vehicle: saline): 107 % of control | T/C (dose: 15.0 micrograms/kg/injection, schedule: Q04DX003 (ip), vehicle: saline): 107 % of control | T/C (dose: 31.0 micrograms/kg/injection, schedule: Q04DX003 (ip), vehicle: saline): 120 % of control

From PubChem BioAssay AID330 (DTP/NCI, 2004)
